Experimental data from US5494933A, “Treatment” (Beecham-Wuelfing GmbH & Co. KG, priority 1986, dated 1996).

What was measured:
[1] = system: heart rate, systolic left ventricular pressure, left ventricular dp/dt max and mean arterial blood pressure; test: Haemodynamic profile in anaesthetized rats; type: in vivo, rat; conditions: for % effect of Dhr 20 on dp/dtmax: left ventricular
From the text: 2. Haemodynamic profile in anaesthetized rats.
The effect of compounds of the invention on heart rate, systolic left ventricular pressure, left ventricular dp/dt max and mean arterial blood pressure was investigated so as to obtain information on the anti-anginal potential of these compounds, by reducing the oxygen demand of the ischaemic heart.
**LVP = systolic left ventricular pressure
***BP = mean arterial blood pressure
^a = i.d. administration

coronary artery = target: T1, coronary artery (Sus scrofa, UniProt A0A8W4FNC0); test: Pig isolated coronary artery, Ca++-antagonistic activity
T1 construct: Coronary artery spirals were prepared; from tissue; host or cells: pig coronary artery spirals
Experimental: b) Pig isolated coronary artery
Coronary artery spirals were prepared and in lengths from 1.5 to 2 cm were incubated at 32.5° in Ca^++ -free Krebs-Henseleit solution containing tris buffer and 60 mM KCl. Ca^++ in concentrations ranging from 0.1 mM-7 mM was given every 10 min to produce a control dose-responsecurve. Following a wash out circle using EDTA, either placebo or drug was administered, and an equilibration time of 30 minutes allowed before the second dose-response curve was made. Dose-ratios were calculated at ED50 -levels, from these the log KB was calculated.

coronary spasm = test: Vasopressin test in anaesthetized rats (coronary vasodilating activity, coronary spasm); type: in vivo, rat; conditions: 0.6 g/kg i.d., vasopressin (Lysopressin) 1 I.U./kg i.v.
Experimental: 1. Coronary Vasodilating activity
a) Vasopressin test in anaesthetized rats
Vasopressin (Lysopressin: 1 I.U./kg) was administered intravenously in order to provoke coronary spasm (ST-segment elevation in the ECG).
The ability of test compounds to reduce coronary spasm is taken as a measure of their anti-anginal potential in spasm-induced angina pectoris. (Ref. Drug.Res. 33(11), 8,1117-1121 (1983)).

[2] = anaesthetized rat, i.v., at Dhr 20

T1 sequence (A0A8W4FNC0 1-2067): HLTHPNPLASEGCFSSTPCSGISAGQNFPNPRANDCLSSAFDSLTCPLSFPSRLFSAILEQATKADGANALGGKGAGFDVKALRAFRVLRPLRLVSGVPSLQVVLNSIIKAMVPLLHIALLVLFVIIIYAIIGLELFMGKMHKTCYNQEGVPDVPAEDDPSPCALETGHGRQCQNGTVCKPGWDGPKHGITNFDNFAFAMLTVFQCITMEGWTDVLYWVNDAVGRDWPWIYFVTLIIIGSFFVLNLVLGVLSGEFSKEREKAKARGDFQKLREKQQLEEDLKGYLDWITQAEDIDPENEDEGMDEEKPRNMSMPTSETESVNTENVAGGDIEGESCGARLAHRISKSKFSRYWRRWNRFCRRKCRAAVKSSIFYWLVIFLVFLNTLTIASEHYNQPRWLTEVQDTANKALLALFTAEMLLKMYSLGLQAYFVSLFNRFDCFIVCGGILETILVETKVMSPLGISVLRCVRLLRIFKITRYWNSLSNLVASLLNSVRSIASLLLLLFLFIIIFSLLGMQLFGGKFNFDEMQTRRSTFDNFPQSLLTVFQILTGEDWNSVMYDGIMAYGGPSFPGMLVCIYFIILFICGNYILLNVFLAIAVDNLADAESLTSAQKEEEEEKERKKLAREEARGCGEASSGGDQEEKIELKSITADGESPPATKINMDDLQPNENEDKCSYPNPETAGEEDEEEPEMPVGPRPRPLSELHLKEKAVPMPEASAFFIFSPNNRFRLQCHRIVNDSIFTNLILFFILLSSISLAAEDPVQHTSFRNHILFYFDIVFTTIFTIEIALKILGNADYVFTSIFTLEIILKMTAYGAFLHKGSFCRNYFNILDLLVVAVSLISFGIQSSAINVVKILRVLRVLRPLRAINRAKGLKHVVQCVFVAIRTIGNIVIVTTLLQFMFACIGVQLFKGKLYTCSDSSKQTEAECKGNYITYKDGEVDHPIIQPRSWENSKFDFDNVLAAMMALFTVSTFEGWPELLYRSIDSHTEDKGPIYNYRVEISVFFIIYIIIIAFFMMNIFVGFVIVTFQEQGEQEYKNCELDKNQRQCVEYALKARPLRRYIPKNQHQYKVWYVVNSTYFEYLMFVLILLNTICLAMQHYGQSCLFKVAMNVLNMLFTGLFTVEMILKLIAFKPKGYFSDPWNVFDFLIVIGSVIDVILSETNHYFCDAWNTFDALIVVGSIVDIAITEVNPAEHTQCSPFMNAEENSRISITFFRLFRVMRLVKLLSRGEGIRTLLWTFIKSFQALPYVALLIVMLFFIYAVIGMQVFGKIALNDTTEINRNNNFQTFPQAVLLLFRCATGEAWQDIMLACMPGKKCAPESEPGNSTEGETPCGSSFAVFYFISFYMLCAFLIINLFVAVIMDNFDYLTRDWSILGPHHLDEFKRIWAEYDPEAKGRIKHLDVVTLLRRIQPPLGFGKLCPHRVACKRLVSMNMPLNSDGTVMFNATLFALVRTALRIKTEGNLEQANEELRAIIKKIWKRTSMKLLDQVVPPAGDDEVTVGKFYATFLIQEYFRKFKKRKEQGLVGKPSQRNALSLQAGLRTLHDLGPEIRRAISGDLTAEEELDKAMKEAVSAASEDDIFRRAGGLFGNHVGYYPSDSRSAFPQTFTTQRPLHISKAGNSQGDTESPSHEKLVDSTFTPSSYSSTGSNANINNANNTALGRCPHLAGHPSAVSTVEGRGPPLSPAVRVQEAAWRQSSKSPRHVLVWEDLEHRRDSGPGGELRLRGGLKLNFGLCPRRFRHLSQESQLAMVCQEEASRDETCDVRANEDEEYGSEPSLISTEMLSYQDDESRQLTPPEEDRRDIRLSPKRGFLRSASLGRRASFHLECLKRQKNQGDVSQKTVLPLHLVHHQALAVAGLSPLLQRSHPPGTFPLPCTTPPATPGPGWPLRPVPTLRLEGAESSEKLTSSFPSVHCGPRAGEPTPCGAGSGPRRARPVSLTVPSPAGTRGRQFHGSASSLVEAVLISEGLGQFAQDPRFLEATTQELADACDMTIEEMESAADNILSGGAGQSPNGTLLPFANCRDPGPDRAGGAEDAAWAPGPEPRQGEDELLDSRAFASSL

SMILES	i.v. duration of action on heart rate ([1]; anaesthetized rat, i.v.) [min]	% effect of Dhr 20 on dp/dtmax [1, 2] [%]	also measured
CCCCOC(=O)N(CCCN(C)CCc1ccc(OC)c(OC)c1)c1ccc(OC)c(OC)c1 [Example E24, (N-[3,4-Dimethoxyphenyl]-N-3-[N'-2-(3,4-dimethoxyphenyl)-ethyl-N'methylamino]-propyl)-n-butyl-urethane]	10	-8	
COc1ccc(CCN(C)CCCN(C(=O)NCc2ccccc2)c2ccc(OC)c(OC)c2)cc1OC [Example E30, (N-[3,4-Dimethoxyphenyl]-N-3-[N'-2-(3,4-dimethoxyphenyl)-ethyl-N'-methylamino]-propyl)-N"-benzylurea]	10	-20	
COc1ccc(CCN(C)CCCN(C(=O)Oc2ccccc2)c2ccc(OC)c(OC)c2)cc1OC [Example E25, (N-[3,4-Dimethoxyphenyl]-N-3-[N'-2-(3,4-dimethoxyphenyl)-ethyl-N'-methylamino]-propyl)-phenyl-urethane]	10	-2	Dhr 20 (i.v. dose which reduces heart rate by ca. 20%) ([1]; anaesthetized rat, i.v.): 0.8; % effect of Dhr 20 on BP (mean arterial blood pressure) [1, 2]: -14%; % effect of Dhr 20 on LVP (systolic left ventricular pressure) [1, 2]: -10%
COc1ccc(CCN(C)CCN(C(=O)NC(C)c2ccccc2)c2ccc(OC)c(OC)c2)cc1OC (stereo not shown) [Example E32]	10	-3	
CCCCCN(CCCN(C)CCc1ccc(OC)c(OC)c1)c1ccc(OC)c(OC)c1 [Example E34, (N-[3,4-Dimethoxyphenyl]-N-3-[N'-2-(3,4-dimethoxyphenyl)-ethyl-N'-methylamino]-propyl)-n-pentylamine]	5 to 10	-10	
COc1ccc(CCN(C)CCCN(Cc2ccc([N+](=O)[O-])cc2)c2ccc(OC)c(OC)c2)cc1OC [Example E6, (N-[3,4-Dimethoxyphenyl]-N-3-[N'-2-(3,4-dimethoxyphenyl)-ethyl-N'-methylamino]-propyl)-(4-nitro)-benzylamine]	60	-5	
CCCCC(=O)N(CCCN(C)CCc1ccc(OC)c(OC)c1)c1ccc(OC)c(OC)c1 [Example E12, (N-[3,4-Dimethoxyphenyl]-N-3-[N'-2-(3,4-dimethoxyphenyl)-ethyl-N'-methylamino]-propyl)-pentanoic acid amide]	10	-6	
COc1ccc(CCN(C)CCCN(Cc2ccccc2)c2ccc(OC)c(OC)c2)cc1OC [Example E4, (N-[3,4-Dimethoxyphenyl]-N-3-[N'-2-(3,4-dimethoxyphenyl)-ethyl-N'-methylamino]-propyl)-benzylamine]	10	-12	Kb (coronary artery; pig coronary artery spirals, 60 mM KCl, Ca++ 0.1 mM-7 mM, 30 min equilibration, dose-ratios at ED50 levels): 1.41 µM; Ca++-antagonistic activity in coronary artery in vitro (coronary artery; pig coronary artery, from log KB): moderate to medium
CCCNC(=O)N(CCCN(C)CCc1ccc(OC)c(OC)c1)c1ccc(OC)c(OC)c1 [Example E27, (N-[3,4-Dimethoxyphenyl]-N-3-[N'-2-(3,4-dimethoxyphenyl)-ethyl-N'-methylamino]-propyl)-N"-n-propyl-urea]	5 to 10	-1	
COc1ccc(CCN(C)CCCN(c2ccc(OC)c(OC)c2)c2ncc([N+](=O)[O-])cc2[N+](=O)[O-])cc1OC [Example E44, (N-[3,4-Dimethoxyphenyl]-N-3-[N'-2-(3,4-dimethoxyphenyl)-ethyl-N'-methyl-amino]-propyl)-3,5-dinitro-2-amino-pyridine]	10	-8	Dhr 20 (i.v. dose which reduces heart rate by ca. 20%) ([1]; anaesthetized rat, i.v.): 3.2; % effect of Dhr 20 on BP (mean arterial blood pressure) [1, 2]: -10%; % effect of Dhr 20 on LVP (systolic left ventricular pressure) [1, 2]: -6%
COc1ccc(CCN(C)CCCN(Cc2ccccc2[N+](=O)[O-])c2ccc(OC)c(OC)c2)cc1OC [Example E1, (N-[3,4-Dimethoxyphenyl]-N-3-[N'-2-(3,4-dimethoxyphenyl)-ethyl-N'-methylamino]-propyl)-(2-nitro)-benzylamine]	10	-3	activity against coronary spasm (ST-segment elevation in the ECG) (coronary spasm): active against coronary spasm
COc1ccc(CCN(C)CCCN(C(=O)CCc2ccccc2)c2ccc(OC)c(OC)c2)cc1OC [Example E15, (N-[3,4-Dimethoxyphenyl]-N-3-[N'-2-(3,4-dimethoxyphenyl)-ethyl-N'-methylamino]-propyl)-(3-phenyl)propanoic acid amide]	10	-7	
COc1ccc(CCN(C)CCCN(C(=O)c2ccc([N+](=O)[O-])cc2)c2ccc(OC)c(OC)c2)cc1OC [Example E50, (N-[3,4-Dimethoxyphenyl]-N-3-[N'-2-(3,4-dimethoxyphenyl)-ethyl-N'-methyl-amino]-propyl)-4-nitrobenzamide]			% effect of Dhr 20 on BP (mean arterial blood pressure) ([1]; rat, in vivo): -6%; duration of action on heart rate ([1]; rat, in vivo): > 90 min; % effect of Dhr 20 on BP (mean arterial blood pressure) ([1]; rat, in vivo, iv): -1%; % effect of Dhr 20 on LVP (systolic left ventricular pressure) ([1]; rat, in vivo, iv): -1%
